Experimental data reported in patent US6800625B2, “Substituted 2,4-dihydro-pyrrolo[3,4-b]quinolin-9-one derivatives useful as phosphodiesterase inhibitors” (Janssen Pharmaceutica N.V., priority 2002, dated 2004).

Assays:
[1] = molecular target: PDEV (UniProt O76074); test: Cyclic nucleotide phosphodiesterase (PDE) assay, measurement of inhibition of PDEV; format: biochemical, rabbit or human; conditions: PDEV isolated from rabbit and human tissues; 1 μM cGMP, 10% DMSO, 30° C., 30 minutes
Method: Cyclic Nucleotide Phosphodiesterase (PDE) Assay
PDEV was isolated from rabbit and human tissues according to the protocol described by Boolell et al. (Boolell, M., Allen, M. J., Ballard, S. A., Ge[o-Attee, S., Muirhead, G. J., Naylor, A. M., Osterdoh, I. H., and Gingell, C) in International Journal of Impotence Research 1996 8, 47-52 with minor modifications.
Briefly, rabbit or human tissues were homogenized in an ice-cold buffer solution containing 20 mM HEPES (pH 7.2), 0.25M sucrose, 1 mM EDTA, and 1 mM phenylmethylsulphonyl fluoride (PMSF). The homogenates were centrifuged at 100,000 g for 60 minutes at 4° C. The supernatant was filtered through […] filter and loaded on a Pharmacia Mono Q anion exchange column (1 ml bed volume) that was equilibrated with 20 mM HEPES, 1 mM EDTA and 0.5 mM PMSF. After washing out unbound proteins, the enzymes were eluted with a linear gradient of 100-600 mM NaCl in the same buffer (35 to 50 ml total, depending on the tissue. Enzymes from the skeletal muscle, corpus cavernosum, retina, heart and platelet were eluted with 35, 40, 45, 50, and 50 ml respectively.) The column was run at a flow rate of 1 ml/min and 1 ml fractions were collected. […]
The assays were adapted to a 96-well format. […] An aliquot of 200 μl was taken and counted by liquid scintillation. PDE activity was expressed as pmol cyclic nucleotide hydrolyzed/min/ml of enzyme preparation. […]

[2] = system: men who suffer from ED; conditions: cited from earlier work

IC50 [1] [µM]	SMILES	improved sexual function, share of men ([2]; men who suffer from ED of psychogenic or organic etiology, clinical studies)	improved erections, share of patients ([2]; patients who had undergone a radical prostatectomy, versus 15% on placebo) [%]	undesirable side effects ([2]; use of sildenafil, result from non-selective effects on a variety of tissues)
0.545	O=C1c2ccccc2NC23OC12CN(Cc1ccccc1)C3c1ccc2c(c1)OCO2 (centres unmarked) [Compound 1]	–	–	–
0.299	O=c1c2ccccc2[nH]c2c(-c3ccc4c(c3)OCO4)n(Cc3ccccc3)cc12 [Compound 2]	–	–	–
–	CCCc1nn(C)c2c(=O)[nH]c(-c3cc(S(=O)(=O)N4CCN(C)CC4)ccc3OCC)nc12 [sildenafil, 5-[2-ethoxy-5-(4-methylpiperazin-1-ylsulphonyl)phenyl]-1-methyl-3-n-propyl-6,7-dihydro-1H-pyrazolo[4,3-d]pyrimidin-7-one]	about 70%	43	headache, flushing and disrupted color vision
